ChEMBL document CHEMBL1909294, “Translating clinical findings into knowledge in drug safety evaluation--drug induced liver injury prediction system (DILIps)” (PLoS Comput Biol, 2011)

Legend:
Hepatotoxicity [1] = test system: Hepatotoxicity;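 on HepSE cholecystitis: Cholecystitis-related hepatic side effect score drawn from the DILIps (drug-induced liver injury prediction) training data set; call rule not given here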;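 on HepSE cirrhosis: cirrhosis hepatic side effect score taken from the DILIps (drug-induced liver injury prediction) training set; call rule not given here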;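 on HepSE elevated liver function tests: hepatic side effect score for raised liver function tests, as recorded in the DILIps training set used for predicting drug-induced liver injury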;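 on HepSE hepatitis: Hepatitis-related hepatic side effect score taken from the training data of DILIps, a prediction system for drug-induced liver injury; call rule not given here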;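 on HepSE hepatomegaly: hepatic side effect score for hepatomegaly, taken from the training set of the DILIps drug-induced liver injury prediction system; call rule not given here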; on HepSE liver disease: call rule not given here;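 on HepSE liver fatty: hepatic side effect score for fatty liver, taken from the DILIps training set for predicting drug-induced liver injury; call rule not given here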
Hepatotoxicity [2] = test system: Hepatotoxicity; remark: listed apart in the source;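 on HepSE cholecystitis: Cholecystitis-related hepatic side effect score drawn from the DILIps (drug-induced liver injury prediction) training data set; call rule not given here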;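 on HepSE cirrhosis: cirrhosis hepatic side effect score taken from the DILIps (drug-induced liver injury prediction) training set; call rule not given here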;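 on HepSE elevated liver function tests: hepatic side effect score for raised liver function tests, as recorded in the DILIps training set used for predicting drug-induced liver injury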;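 on HepSE hepatitis: Hepatitis-related hepatic side effect score taken from the training data of DILIps, a prediction system for drug-induced liver injury; call rule not given here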;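 on HepSE hepatomegaly: hepatic side effect score for hepatomegaly, taken from the training set of the DILIps drug-induced liver injury prediction system; call rule not given here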; on HepSE liver disease: call rule not given here;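 on HepSE liver fatty: hepatic side effect score for fatty liver, taken from the DILIps training set for predicting drug-induced liver injury; call rule not given here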
Hepatotoxicity [3] = test system: Hepatotoxicity; remark: listed apart in the source;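 on HepSE cholecystitis: Cholecystitis-related hepatic side effect score drawn from the DILIps (drug-induced liver injury prediction) training data set; call rule not given here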;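 on HepSE cirrhosis: cirrhosis hepatic side effect score taken from the DILIps (drug-induced liver injury prediction) training set; call rule not given here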;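 on HepSE hepatitis: Hepatitis-related hepatic side effect score taken from the training data of DILIps, a prediction system for drug-induced liver injury; call rule not given here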;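 on HepSE hepatomegaly: hepatic side effect score for hepatomegaly, taken from the training set of the DILIps drug-induced liver injury prediction system; call rule not given here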; on HepSE liver disease: call rule not given here;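 on HepSE liver fatty: hepatic side effect score for fatty liver, taken from the DILIps training set for predicting drug-induced liver injury; call rule not given here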
Hepatotoxicity [4] = test system: Hepatotoxicity; remark: listed apart in the source;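 on HepSE cholecystitis: Cholecystitis-related hepatic side effect score drawn from the DILIps (drug-induced liver injury prediction) training data set; call rule not given here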;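 on HepSE cirrhosis: cirrhosis hepatic side effect score taken from the DILIps (drug-induced liver injury prediction) training set; call rule not given here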;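 on HepSE hepatitis: Hepatitis-related hepatic side effect score taken from the training data of DILIps, a prediction system for drug-induced liver injury; call rule not given here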;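 on HepSE hepatomegaly: hepatic side effect score for hepatomegaly, taken from the training set of the DILIps drug-induced liver injury prediction system; call rule not given here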; on HepSE liver disease: call rule not given here;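 on HepSE liver fatty: hepatic side effect score for fatty liver, taken from the DILIps training set for predicting drug-induced liver injury; call rule not given here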
Hepatotoxicity [5] = test system: Hepatotoxicity; remark: listed apart in the source; on HepSE liver disease: call rule not given here
Hepatotoxicity [6] = test system: Hepatotoxicity; remark: listed apart in the source; on HepSE liver disease: call rule not given here
Hepatotoxicity [7] = test system: Hepatotoxicity; remark: listed apart in the source
Hepatotoxicity [8] = test system: Hepatotoxicity; remark: listed apart in the source
Hepatotoxicity [9] = test system: Hepatotoxicity; remark: listed apart in the source
Hepatotoxicity [10] = test system: Hepatotoxicity; remark: listed apart in the source
Hepatotoxicity [11] = test system: Hepatotoxicity; remark: listed apart in the source
Hepatotoxicity [12] = test system: Hepatotoxicity; remark: listed apart in the source
Hepatotoxicity [13] = test system: Hepatotoxicity; remark: listed apart in the source
Hepatotoxicity [14] = test system: Hepatotoxicity; remark: listed apart in the source

SMILES | HepSE_liver fatty (Hepatotoxicity [1]) | HepSE_cholecystitis (Hepatotoxicity [2]) | HepSE_hepatomegaly (Hepatotoxicity [3]) | HepSE_liver disease (Hepatotoxicity [4]) | HepSE_hepatitis (Hepatotoxicity [5]) | HepSE_hepatic necrosis (Hepatotoxicity [6]) | HepSE_cirrhosis (Hepatotoxicity [7]) | HepSE_bilirubinemia (Hepatotoxicity [8]) | HepSE_elevated liver function tests (Hepatotoxicity [9]) | HepSE_Combined Scores (Hepatotoxicity [10]) | HepSE_cholelithiasis (Hepatotoxicity [11]) | HepSE_hepatic failure (Hepatotoxicity [12]) | HepSE_jaundice (Hepatotoxicity [13]) | HepSE_liver function tests abnormal (Hepatotoxicity [14]) | also measured
CCCc1cc(=O)[nH]c(=S)[nH]1 [PROPYLTHIOURACIL] | – | – | – | – | – | – | – | – | – | – | – | – | – | – | HepSE_liver fatty (Hepatotoxicity [1]; Liver): 0; HepSE_cholecystitis (Hepatotoxicity [2]; Liver): 0; HepSE_hepatomegaly (Hepatotoxicity [3]; Liver): 0; HepSE_liver disease (Hepatotoxicity [4]; Liver): 0; HepSE_hepatitis (Hepatotoxicity [5]; Liver): 1; HepSE_hepatic necrosis (Hepatotoxicity [6]; Liver): 0; HepSE_cirrhosis (Hepatotoxicity [7]; Liver): 0; HepSE_bilirubinemia (Hepatotoxicity [8]; Liver): 0; HepSE_elevated liver function tests (Hepatotoxicity [9]; Liver): 0; HepSE_Combined Scores (Hepatotoxicity [10]; Liver): 2; HepSE_cholelithiasis (Hepatotoxicity [11]; Liver): 0; HepSE_hepatic failure (Hepatotoxicity [12]; Liver): 0; HepSE_jaundice (Hepatotoxicity [13]; Liver): 1; HepSE_liver function tests abnormal (Hepatotoxicity [14]; Liver): 0
CC(C)OC(=O)C(C)(C)Oc1ccc(C(=O)c2ccc(Cl)cc2)cc1 [FENOFIBRATE] | 1 | 1 | 0 | 0 | 1 | 0 | 1 | 0 | 0 | 7 | 1 | 0 | 1 | 1 | –
O=[N+]([O-])O[C@@H]1CO[C@H]2[C@@H]1OC[C@@H]2O [ISOSORBIDE MONONITRATE] | 0 | 1 | 1 | 0 | 0 | 0 | 0 | 0 | 0 | 2 | 0 | 0 | 0 | 0 | –
O=[N+]([O-])OCC(CO[N+](=O)[O-])O[N+](=O)[O-] [NITROGLYCERIN] | 0 | 0 | 0 | 0 | 0 | 0 | 0 | 0 | 0 | 0 | 0 | 0 | 0 | 0 | –
O=C1Nc2ccc(Cl)cc2[C@@](C#CC2CC2)(C(F)(F)F)O1 [EFAVIRENZ] | 0 | 0 | 1 | 0 | 1 | 0 | 0 | 0 | 0 | 4 | 0 | 1 | 1 | 0 | –
CCc1c(C)[nH]c2c1C(=O)C(CN1CCOCC1)CC2 (configuration not stated) [MOLINDONE] | 0 | 0 | 0 | 0 | 0 | 0 | 0 | 0 | 0 | 0 | 0 | 0 | 0 | 0 | –
CC(=O)N[C@@H](CS)C(=O)O [ACETYLCYSTEINE] | 0 | 0 | 0 | 0 | 0 | 0 | 0 | 0 | 0 | 0 | 0 | 0 | 0 | 0 | –
COc1nc(N)nc2c1ncn2[C@@H]1O[C@H](CO)[C@@H](O)[C@@H]1O [NELARABINE] | 0 | 0 | 0 | 0 | 0 | 0 | 0 | 0 | 0 | 0 | 0 | 0 | 0 | 0 | –
COc1ccc2[nH]c([S+]([O-])Cc3ncc(C)c(OC)c3C)nc2c1 (configuration not stated) [OMEPRAZOLE] | 0 | 0 | 0 | 1 | 1 | 1 | 0 | 1 | 0 | 7 | 1 | 1 | 1 | 0 | –
COC(=O)C1=C(C)NC(C)=C(C(=O)OC(C)C)C1c1cccc2nonc12 (configuration not stated) [ISRADIPINE] | 0 | 0 | 0 | 0 | 0 | 0 | 0 | 0 | 1 | 1 | 0 | 0 | 0 | 0 | –
N=C(N)NCCN1CCCCCCC1 [GUANETHIDINE] | 0 | 0 | 0 | 0 | 0 | 0 | 0 | 0 | 0 | 0 | 0 | 0 | 0 | 0 | –
Cc1cc2c(s1)Nc1ccccc1N=C2N1CCN(C)CC1 [OLANZAPINE] | 1 | 0 | 0 | 0 | 1 | 0 | 0 | 1 | 0 | 4 | 0 | 0 | 1 | 0 | –
CCC1(C)CC(=O)NC1=O (configuration not stated) [ETHOSUXIMIDE] | 0 | 0 | 0 | 0 | 0 | 0 | 0 | 0 | 0 | 0 | 0 | 0 | 0 | 0 | –
